Measured values as given in US20230414786A1, “PERFUSION-GUIDED GENE THERAPY FOR IMPROVING CANCER TREATMENT” (priority 2022, published 2023).

Columns and labels:
[1] = cited from earlier work
[2] = system: iNOS expression in adjacent glomeruli; experiment: iNOS immunohistochemistry in adjacent kidney glomeruli after sonopermeation transfection; assay type: in vivo, nude athymic mice; details: p>0.05
Excerpt: Quantitative Ex Vivo Imaging. For iNOS expression colocalization studies, sections were imaged on a Marianas Confocal (Zeiss) using a 40X oil objective, capturing 14 steps of 0.33 μm on the z-axis, with a resolution of 0.33 μm per pixel. At least five images of each tumor of were taken, with four tumors per group. To avoid bias, the endothelial marker Isolectin-B4 was used to determine image capture and focus and iNOS staining was captured at equal exposure times for all tissues. The images were then analyzed in ImageJ (NIH, USA), selecting the lectin-positive area of the picture taken to create the area to be quantified. This area was then used to quantify the mean intensity of the iNOS staining within the tumor endothelium. The mean iNOS intensity within each tumor endothelium z-stack was then averaged to obtain the mean iNOS intensity of each tumor blood vessel analyzed. Averages were then obtained for each tumor. Because tumor cells were injected directly into the kidney and often coopt glomeruli and tubules (PMID: 24066611), NOS expression was quantified in the adjacent kidney in a separate analysis, following the same method as tumor iNOS quantification. Quantification of pimonidazole and Isolectin was performed using the average intensities from the respective stains comparing the iNOS treated and Sham groups using FIJI (NIH). […]

iNOS = experiment: ELISA of protein extracts from transfected NGP cells (iNOS expression); assay type: cell-based, H. sapiens; details: NGP cell protein extracts, n=3
orthotopic NGP tumor [3] = experiment: Immunohistochemical analysis of tumor vascularity and hypoxia (Isolectin-B4, aSMA, pimonidazole) 72 h after transfection; assay type: in vivo, nude athymic mice; design: unit not given here
Description: Tumoral Hypoxia Measurements. 60 mg/kg pimonidazole-HCl (Hypoxyprobe, Massachusetts) was injected intraperitoneally 30 min before sacrifice, and tissues were harvested and processed as described above.
Immunohistochemistry. Excised NGP tumors were embedded in Tissue-Tek® optimum cutting temperature (O.C.T.) compound (Electron Microscopy Services), then stored at −20 ° C. until cryosectioned (Leica CM1860). 15 μm thick cryosections were fixed with acetone and permeabilized with Tween 20. […]
Quantitative Ex Vivo Imaging. […] The images were then analyzed in ImageJ (NIH, USA), selecting the lectin-positive area of the picture taken to create the area to be quantified. This area was then used to quantify the mean intensity of the iNOS staining within the tumor endothelium. The mean iNOS intensity within each tumor endothelium z-stack was then averaged to obtain the mean iNOS intensity of each tumor blood vessel analyzed. […] Because tumor cells were injected directly into the kidney and often coopt glomeruli and tubules (PMID: 24066611), NOS expression was quantified in the adjacent kidney in a separate analysis, following the same method as tumor iNOS quantification. Quantification of pimonidazole and Isolectin was performed using the average intensities from the respective stains comparing the iNOS treated and Sham groups using FIJI (NIH). […]

[4] = system: iNOS expression in tumor endothelium of NGP tumors; experiment: iNOS immunohistochemistry in tumor endothelium (lectin-positive area) 72 h after sonopermeation transfection; assay type: in vivo, nude athymic mice; details: 72 h after transfection
Excerpt: (§1) Orthotopic NGP Tumor Model and Implantation. NGP cells were MYC-N amplified, and thus function as an appropriate model for poor prognosis NB. They reproduce many features of clinical NB, such as histology, frequency, and location of metastatic lesions when renally implanted, as was done in nude athymic mice (Charles River, Wilmington, Mass.) to generate tumor models for this study. Mice were firstly anesthetized with inhalable isoflurane. After being positioned in a sterile environment, the entire right side of each mouse was cleaned with ethanol and painted with Betadine. A 3-5 mm diagonal incision was made with a scalpel blade toward the ribcage atop the kidney. The underlying fascia was cut with scissors to expose the right kidney. A 27-gauge needle (of length 1.3 cm, BD Biosciences) fitted to a syringe containing 20 μL of cell suspension (1×10^6 NGP cells in Phosphate Buffered Saline, Leibniz Institute DSMZ-GmbH, Braunschweig, Germany) was inserted into the kidney and its contents injected slowly. The kidney was then returned to the abdominal cavity. […] Mice were monitored daily to confirm complete recovery, and tumors were allowed to grow for 4-5 weeks (1-2-g weight) before ultrasound experiments were initiated. […]
Quantitative Ex Vivo Imaging. […] The images were then analyzed in ImageJ (NIH, USA), selecting the lectin-positive area of the picture taken to create the area to be quantified. […]

orthotopic NGP tumor [5] = experiment: Quantitative contrast-enhanced ultrasound (qCEUS) imaging of tumor perfusion volume and reperfusion rate; assay type: in vivo, nude athymic mice
Excerpt: as §1, with “kidney.” for “kidney. A 27-gauge needle (of length 1.3 cm, BD Biosciences) fitted to a syringe containing 20 μL of cell suspension (1×10^6 NGP cells in Phosphate Buffered Saline, Leibniz Institute DSMZ-GmbH, Braunschweig, Germany) was inserted into the kidney and its contents injected slowly. The kidney was then returned to the abdominal cavity.”
3D Volume and 2D Perfusion Imaging. […] Data were collected and subsequently analyzed using custom LabVIEW software, where tumor boundaries were manually segmented. […] As described in Wei K, et al., Quantification of Myocardial Blood Flow With Ultrasound-Induced Destruction of Microbubbles Administered as a Constant Venous Infusion, Circulation, 1998; 97: 473-83, MB perfusion conforms to the equation y=A (1−e^βt), where A is the relative blood volume (RBV) and β is the rate of reperfusion. […]

orthotopic NGP tumor [6] = experiment: Animal survival study (days for tumors to increase by 50% above starting volume, up to 14 days); assay type: in vivo, nude athymic mice; details: plasmid transfection followed by L-DOX with sonopermeation; study endpoint 14 days
Description: Animal Survival Studies. Survival in vivo experiments were performed as detailed above. Briefly, mature tumors were primed with gene therapy (either mKate or iNOS), transfected by sonopermeation with 1×10^9 cationic polydispersed MBs having median diameter ˜2 μm. 72 h following gene therapy treatment, sonopermeation was performed using net-neutral lipid MBs to deliver liposomal doxorubicin as described above. For this experiment, due to the volume of bubbles needed, size-isolated microbubbles (SIMBs) were obtained from Advanced Microbubbles Inc to perform imaging and sonopermeation. Tumors were measured every other day until they reached the endpoint criteria up to 14 days using calipers, and re-imaged with a bolus of 1×10^7 SIMBs on Day 7 as well as re-dosed with L-DOX in conjunction with sonopermeation. Normalized tumor growth over the two-week observation period was obtained by dividing the volume on any given day by initial tumor volume. Kaplan-Meier curves were generated to plot the number of days it took for tumors to increase by 50% above their starting volume up to 14 days. Survival curves were plotted, and statistical analyses were conducted in Graphpad (Prism 6). Statistical significance between groups represents Mantel-Cox test, with p<0.05 interpreted as significant.

Molecule	half-life in vivo ([1]; in vivo) [s]	half-life in whole blood ([1]; whole blood) [s]	iNOS expression in adjacent glomeruli [2]	iNOS protein by ELISA (iNOS) [units]	distance between aSMA pericytes and endothelium (orthotopic NGP tumor [3])	iNOS in tumor endothelial cells compared with untreated tumors [4]	iNOS mean intensity within lectin-positive area ([4]; n=4 per group)	change in RBV (normalized to tumor volume, vascularity) from baseline (orthotopic NGP tumor [5]; 3 days post-transfection) [%]	rate of MB reperfusion (RR) normalized to TV (orthotopic NGP tumor [5]; day 3 after transfection) [%]	median survival time (time to 50% tumor growth) (orthotopic NGP tumor [6]) [days]
[N]=O [NO, Nitric oxide]	< 0.002	0.0018								
Sham			remains unchanged	0.04	5.8±1.1	no change in iNOS	8,814±2,952	68±7	77±8	9
